Reference: patent US20210380606A1, “5-AZAINDAZOLE DERIVATIVES AS ADENOSINE RECEPTOR ANTAGONISTS” (Merck Patent GmbH, priority 2018, published 2021)

Experiments:
[1] = molecular target: T1, human A2A receptors (Homo sapiens, UniProt P29274); experiment: Functional human A2A receptor activity, recombinant HEK293 cells, cAMP (HTRF); format: cell-based; settings: read-out: A2A (Category)
T1 construct: expressed in transfected cells; host or cells: HEK293
Description: (§1) The functional activities of human A2A and A2B receptors were determined by quantification of cAMP, being the second messenger for adenosine receptors.
(§2) After a 15 min incubation, HTRF reagents (cAMP dynamic 2, Cis Bio) were added and the cellular cAMP levels were determined using the ENVISION (Perkin Elmer) plate reader.

[2] = molecular target: T2, human A2B receptors (Homo sapiens, UniProt P29275); experiment: Functional human A2B receptor activity, recombinant HEK293 cells, cAMP (HTRF); format: cell-based; settings: read-out: A2B (Category)
T2 construct: expressed in transfected cells; host or cells: HEK293
T2 sequence (P29275 1-332): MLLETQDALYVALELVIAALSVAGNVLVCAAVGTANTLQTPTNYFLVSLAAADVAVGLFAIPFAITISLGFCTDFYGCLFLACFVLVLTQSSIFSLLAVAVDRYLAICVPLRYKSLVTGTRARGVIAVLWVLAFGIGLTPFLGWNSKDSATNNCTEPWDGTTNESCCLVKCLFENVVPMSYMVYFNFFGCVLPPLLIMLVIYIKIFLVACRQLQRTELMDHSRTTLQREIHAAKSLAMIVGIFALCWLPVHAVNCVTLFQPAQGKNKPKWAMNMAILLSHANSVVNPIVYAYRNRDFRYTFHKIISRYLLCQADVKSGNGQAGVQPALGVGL
Description: as §1, §2

T1 sequence (P29274 whole entry): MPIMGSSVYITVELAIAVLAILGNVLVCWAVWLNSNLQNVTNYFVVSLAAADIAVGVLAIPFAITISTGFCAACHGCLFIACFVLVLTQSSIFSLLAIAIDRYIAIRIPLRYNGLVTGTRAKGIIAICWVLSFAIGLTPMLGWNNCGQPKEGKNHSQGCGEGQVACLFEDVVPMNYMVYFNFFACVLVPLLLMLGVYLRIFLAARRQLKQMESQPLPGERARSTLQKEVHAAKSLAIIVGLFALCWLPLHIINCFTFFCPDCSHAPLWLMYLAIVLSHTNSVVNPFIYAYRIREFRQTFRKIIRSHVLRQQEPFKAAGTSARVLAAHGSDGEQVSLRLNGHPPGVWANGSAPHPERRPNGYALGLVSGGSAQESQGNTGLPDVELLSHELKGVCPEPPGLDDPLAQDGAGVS

COCC1CCCN1C(=O)c1cc2c(cn1)c(-c1coc3ccccc13)nn2CS(C)(=O)=O (stereo not drawn) [Compound 34, (3-Benzofuran-3-yl-1-methanesulfonylmethyl-1H-pyrazolo[4,3-c]pyridin-6-yl)-(2-methoxymethyl-pyrrolidin-1-yl)-methanone]
IC50 [1]: < 0.1 µM | IC50 [2]: < 1 µM

CC1(C)CC(O)CCN1C(=O)c1cc2c(cn1)c(-c1coc3ccccc13)nn2CS(C)(=O)=O (stereo not drawn) [Compound 35, (3-Benzofuran-3-yl-1-methanesulfonylmethyl-1H-pyrazolo[4,3-c]pyridin-6-yl)-(4-hydroxy-2,2 dimethyl-piperidin-1-yl)-methanone]
IC50 [1]: < 0.1 µM | IC50 [2]: < 1 µM

CS(=O)(=O)Cn1nc(-c2coc3ccccc23)c2cnc(C(=O)N3CCC(O)CC3)cc21 [Compound 36, (3-Benzofuran-3-yl-1-methanesulfonylmethyl-1H-pyrazolo[4,3-c]pyridin-6-yl)-(4-hydroxy-piperidin-1-yl)-methanone]
IC50 [1]: < 0.1 µM | IC50 [2]: < 0.1 µM

CS(=O)(=O)Cn1nc(-c2coc3ccccc23)c2cnc(C(=O)N3[C@@H]4CC[C@H]3C[C@@H](O)C4)cc21 [Compound 37, [3-(benzofuran-3-yl)-1-(methylsulfonylmethyl)pyrazolo[4,3-c]pyridin-6-yl]-(3-endo-hydroxy-8-azabicyclo[3.2.1]octan-8-yl)methanone]
IC50 [1]: < 0.1 µM | IC50 [2]: < 0.1 µM

CS(=O)(=O)Cn1nc(-c2coc3ccccc23)c2cnc(C(=O)N3CCCC(O)C3)cc21 (stereo not drawn) [Compound 38, (3-Benzofuran-3-yl-1-methanesulfonylmethyl-1H-pyrazolo[4,3-c]pyridin-6-yl)-(3-hydroxy-piperidin-1-yl)-methanone]
IC50 [1]: < 0.1 µM | IC50 [2]: < 1 µM

CS(=O)(=O)Cn1nc(-c2coc3ccccc23)c2cnc(C(=O)N3CCCC(F)(F)C3)cc21 [Compound 39, (3-Benzofuran-3-yl-1-methanesulfonylmethyl-1H-pyrazolo[4,3-c]pyridin-6-yl)-(3,3-difluoro-piperidin-1-yl)-methanone]
IC50 [1]: < 0.1 µM | IC50 [2]: < 0.1 µM

CS(=O)(=O)Cn1nc(-c2coc3ccccc23)c2cnc(C(=O)N3CCCC(O)CC3)cc21 (stereo not drawn) [Compound 40, (3-Benzofuran-3-yl-1-methanesulfonylmethyl-1H-pyrazolo[4,3-c]pyridin-6-yl)-(4-hydroxyazepan-1-yl)-methanone]
IC50 [1]: < 0.1 µM | IC50 [2]: < 0.1 µM

Cn1nc(-c2cnc3ccc(F)cn23)c2cnc(C(=O)N3CCCCCC3)cc21 [Compound 41, Azepan-1-yl-[3-(6-fluoro-imidazo[1,2-a]pyridin-3-yl)-1-methyl-1H-pyrazolo[4,3-c]pyridin-6-yl]-methanone]
IC50 [1]: < 0.1 µM | IC50 [2]: < 1 µM

O=C(c1cc2c(cn1)c(-c1cnc3ccc(F)cn13)nn2CC(F)(F)F)N1CCCCCC1 [Compound 44, Azepan-1-yl-[3-(6-fluoro-imidazo[1,2-a]pyridin-3-yl)-1-(2,2,2-trifluoro-ethyl)-1H-pyrazolo[4,3-c]pyridin-6-yl]-methanone]
IC50 [1]: < 0.1 µM | IC50 [2]: < 0.1 µM

NC(=O)c1ccc2ncc(-c3nn(CC(F)(F)F)c4cc(C(=O)N5CCCCCC5)ncc34)n2c1 [Compound 46, 3-[6-(Azepane-1-carbonyl)-1-(2,2,2-trifluoro-ethyl)-1H-pyrazolo[4,3-c]-pyridin-3-yl]-imidazo[1,2-a]pyridine-6-carboxylic acid amide]
IC50 [1]: < 0.1 µM | IC50 [2]: < 0.1 µM

O=C(c1cc2c(cn1)c(-c1cnc3ccc(Cl)cn13)nn2CC(F)(F)F)N1CCCCCC1 [Compound 48, Azepan-1-yl-[3-(6-chloro-imidazo[1,2-a]pyridin-3-yl)-1-(2,2,2-trifluoro-ethyl)-1H-pyrazolo[4,3-c]pyridin-6-yl]-methanone]
IC50 [1]: < 0.1 µM | IC50 [2]: < 1 µM

O=C(c1cc2c(cn1)c(-c1cnc3ncc(F)cn13)nn2CC(F)(F)F)N1CCCCCC1 [Compound 50, Azepan-1-yl-[3-(6-fluoro-imidazo[1,2-a]pyrimidin-3-yl)-1-(2,2,2-trifluoro-ethyl)-1H-pyrazolo[4,3-c]pyridin-6-yl]-methanone]
IC50 [1]: < 0.1 µM | IC50 [2]: < 1 µM

O=C(c1cc2c(cn1)c(-c1ccc3ccccn13)nn2CC(F)(F)F)N1CCCCCC1 [Compound 52, Azepan-1-yl-[3-indolizin-3-yl-1-(2,2,2-trifluoro-ethyl)-1H-pyrazolo[4,3-c]pyridin-6-yl]-methanone]
IC50 [1]: < 0.1 µM | IC50 [2]: < 1 µM

O=C(c1cc2c(cn1)c(-c1cnc3ccccn13)nn2CC(F)(F)F)N1CCCCCC1 [Compound 55, Azepan-1-yl-[3-imidazo[1,2-a]pyridin-3-yl-1-(2,2,2-trifluoro-ethyl)-1H-pyrazolo[4,3-c]pyridin-6-yl]-methanone]
IC50 [1]: < 0.1 µM | IC50 [2]: < 1 µM

O=C(c1cc2c(cn1)c(-c1cnc3cnccn13)nn2CC(F)(F)F)N1CCCCCC1 [Compound 56, Azepan-1-yl-[3-imidazo[1,2-a]pyrazin-3-yl-1-(2,2,2-trifluoro-ethyl)-1H-pyrazolo[4,3-c]pyridin-6-yl]-methanone]
IC50 [1]: < 0.1 µM | IC50 [2]: < 1 µM

COc1ccc2ncc(-c3nn(CC(F)(F)F)c4cc(C(=O)N5CCCCCC5)ncc34)n2c1 [Compound 59, Azepan-1-yl-[3-(6-methoxy-imidazo[1,2-a]pyridin-3-yl)-1-(2,2,2-trifluoro-ethyl)-1H-pyrazolo[4,3-c]pyridin-6-yl]-methanone]
IC50 [1]: < 0.1 µM | IC50 [2]: < 1 µM

O=C(c1cc2c(cn1)c(-c1cnc3c(F)cc(F)cn13)nn2CC(F)(F)F)N1CCCCCC1 [Compound 60, Azepan-1-yl-[3-(6,8-difluoro-imidazo[1,2-a]pyridin-3-yl)-1-(2,2,2-trifluoro-ethyl)-1H-pyrazolo[4,3-c]pyridin-6-yl]-methanone]
IC50 [1]: < 0.1 µM | IC50 [2]: < 0.1 µM

Cc1ccc2ncc(-c3nn(CC(F)(F)F)c4cc(C(=O)N5CCCCCC5)ncc34)n2c1 [Compound 61, Azepan-1-yl-[3-(6-methyl-imidazo[1,2-a]pyridin-3-yl)-1-(2,2,2-trifluoro-ethyl)-1H-pyrazolo[4,3-c]pyridin-6-yl]-methanone]
IC50 [1]: < 0.1 µM | IC50 [2]: < 1 µM

O=C(c1cc2c(cn1)c(-c1cnc3c(F)cccn13)nn2CC(F)(F)F)N1CCCCCC1 [Compound 62, Azepan-1-yl-[3-(8-fluoro-imidazo[1,2-a]pyridin-3-yl)-1-(2,2,2-trifluoro-ethyl)-1H-pyrazolo[4,3-c]pyridin-6-yl]-methanone]
IC50 [1]: < 0.1 µM | IC50 [2]: < 0.1 µM

O=C(c1cc2c(cn1)c(-c1cnc3ccc(O)cn13)nn2CC(F)(F)F)N1CCCCCC1 [Compound 68, Azepan-1-yl-[3-(6-hydroxy-imidazo[1,2-a]pyridin-3-yl)-1-(2,2,2-trifluoro-ethyl)-1H-pyrazolo[4,3-c]pyridin-6-yl]-methanone]
IC50 [1]: < 0.1 µM | IC50 [2]: < 1 µM

O=C(c1cc2c(cn1)c(-c1nnc3ccccn13)nn2CC(F)(F)F)N1CCCCCC1 [Compound 71, Azepan-1-yl-[3-[1,2,4]triazolo[4,3-a]pyridin-3-yl-1-(2,2,2-trifluoro-ethyl)-1H-pyrazolo[4,3-c]pyridin-6-yl]-methanone]
IC50 [1]: < 0.1 µM | IC50 [2]: < 1 µM

O=C(c1cc2c(cn1)c(-c1cnc3cc(Cl)c(F)cn13)nn2CC(F)(F)F)N1CCCCCC1 [Compound 73, Azepan-1-yl-[3-(7-chloro-6-fluoro-imidazo[1,2-a]pyridin-3-yl)-1-(2,2,2-trifluoro-ethyl)-1H-pyrazolo[4,3-c]pyridin-6-yl]-methanone]
IC50 [1]: < 0.1 µM | IC50 [2]: < 0.1 µM

O=C(c1cc2c(cn1)c(-c1cnc3cc(F)c(Cl)cn13)nn2CC(F)(F)F)N1CCCCCC1 [Compound 74, Azepan-1-yl-[3-(6-chloro-7-fluoro-imidazo[1,2-a]pyridin-3-yl)-1-(2,2,2-trifluoro-ethyl)-1H-pyrazolo[4,3-c]pyridin-6-yl]-methanone]
IC50 [1]: < 0.1 µM | IC50 [2]: < 1 µM

O=C(c1cc2c(cn1)c(-c1cnc3ccc(F)cn13)nn2CC(F)(F)F)N1CCCOCC1 [Compound 80, [3-(6-Fluoro-imidazo[1,2-a]pyridin-3-yl)-1-(2,2,2-trifluoro-ethyl)-1H-pyrazolo[4,3-c]pyridin-6-yl]-1,4-oxazepan-4-yl-methanone]
IC50 [1]: < 0.1 µM | IC50 [2]: < 1 µM

N#Cc1ccc2ncc(-c3nn(CC(F)(F)F)c4cc(C(=O)N5CCCOCC5)ncc34)n2c1 [Compound 81, 3-[6-(1,4-Oxazepane-4-carbonyl)-1-(2,2,2-trifluoro-ethyl)-1H-pyrazolo[4,3-c]pyridin-3-yl]-imidazo[1,2-a]pyridine-6-carbonitrile]
IC50 [1]: < 0.1 µM | IC50 [2]: < 1 µM

O=C(c1cc2c(cn1)c(-c1cnc3ccc(F)cn13)nn2CC(F)(F)F)N1CC2CCC(C1)O2 [Compound 82, [3-(6-Fluoro-imidazo[1,2-a]pyridin-3-yl)-1-(2,2,2-trifluoro-ethyl)-1H-pyrazolo[4,3-c]pyridin-6-yl]-(8-oxa-3-aza-bicyclo[3.2.1]oct-3-yl)-methanone]
IC50 [1]: < 0.1 µM | IC50 [2]: < 1 µM

O=C(c1cc2c(cn1)c(-c1cnc3c(F)cc(F)cn13)nn2CC(F)(F)F)N1CC2CCC(C1)O2 [Compound 83, [3-(6,8-Difluoro-imidazo[1,2-a]pyridin-3-yl)-1-(2,2,2-trifluoro-ethyl)-1H-pyrazolo[4,3c]pyridin-6-yl]-(8-oxa-3-aza-bicyclo[3.2.1]oct-3-yl)-methanone]
IC50 [1]: < 0.1 µM | IC50 [2]: < 1 µM
